# Laboratory results published in PMC8256334, “Simultaneous Determination of a Novel PD-L1 Inhibitor, IMMH-010, and Its Active Metabolite, YPD-29B, in Rat Biological Matrices by Polarity-Switching Liquid Chromatography-Tandem Mass Spectrometry: Application to ADME Studies” (Frontiers in Pharmacology, 2021).
# Like-named read-outs stand apart in the source and are kept apart here.
# Tests used:
# [1] = Tissue distribution study in rats; format: in vivo, Sprague-Dawley rats; details: for concentration in adrenal gland / concentration in brain / concentration in heart / concentration in kidney / concentration in liver / concentration in lung / concentration in lymph / concentration in plasma / concentration in spleen / concentration in thymus: n = 5; for Kp at 0.25 h / Kp at 0.5 h: female, Sprague-Dawley, rat, oral, i.g. 10 mg/kg IMMH-010 maleate, read-out: T/P (tissue-to-plasma partition)
# Procedure: (§1) Female Sprague-Dawley rats (200 ± 20 g, Vital River, Beijing, China) were kept in standard environmental conditions. Rats were fasted overnight with free access to water and randomly assigned to different groups before the experiments. All animal protocols were approved by the Institute Animal Care and Welfare Committee of the Institute of Materia Medica, Chinese Academy of Medical Sciences and Peking Union Medical College.
# The tissue distribution study was performed 15 min, 30 min, 4 h and 12 h after i. g. administration of 10 mg/kg IMMH-010 maleate. Blood was collected and centrifuged at 5,000 rpm for 10 min. The heart, liver, brain, spleen, lung, kidney, adrenal gland, thymus, and lymph were harvested immediately. The tissues were washed with normal saline and blotted dry with filter paper. All samples were stored at -20°C before analysis.
# [2] = PK study in rats after single i.g. administration of IMMH-010 maleate; format: in vivo, Sprague-Dawley rats; details: rat plasma; for AUC(0-t) / Cmax / MRT last / Tmax / AUC(0-inf) / MRT inf / half-life: female, Sprague-Dawley, po, n = 5; for AUC(0-t) / Cmax / MRT last / AUC(0-inf) / MRT inf / half-life: mean ± SD; for MRT last: read-out: MRT(0-t); for Tmax: median (range); for MRT inf: read-out: MRT(0-∞); for half-life: rat, plasma, read-out: t1/2β (converted)
# From the text: as §1
# IMMH-010 maleate was suspended in 0.5% sodium carboxymethyl cellulose. The rats were intragastrically (i.g.) administered IMMH-010 maleate at doses of 10, 30, and 100 mg/kg. Blood samples were withdrawn via the orbital plexus into heparinized tubes with NaF at 5, 15, and 30 min and 1, 2, 4, 6, 8, 12, 24, 36, and 48 h. Plasma was immediately prepared by centrifugation at 5,000 rpm for 10 min. All samples were stored at −20°C prior to analysis. The PK parameters of IMMH-010 and YPD-29B were calculated using the Linear Trapezoidal with Linear Interpolation method by WinNonlin software version 6.3 based on a noncompartmental model (Pharsight Corporation, Mountain View, United States ).
# Stability in rat plasma = format: in vitro ADME; details: for Accuracy (RE, %) / Measured conc.: n = 5
# Procedure: Plasma: IMMH-010 is an ester-containing compound. […] Therefore, heparin sodium and NaF were dissolved with 0.9% w/v sodium chloride to prepare a mixture of 0.5% heparin sodium and 500 mM NaF. All blood was withdrawn into EP tubes containing this mixture (1:9 v/v mixture:blood) followed by plasma separation. The plasma standards for IMMH-010 were prepared at 1, 2, 5, 10, 20, 80, 120 and 200 ng/ml, and those for YPD-29B were prepared at 2.5, 5, 10, 20, 50, 400, 600 and 1,000 ng/ml. QC samples were prepared at 1, 2, 40 and 160 ng/ml for IMMH-010 and 2.5, 5, 200 and 800 ng/ml for YPD-29B.
# For short-term and long-term stability, plasma samples were kept at 4°C for 4 h and −20°C for 3 months, respectively. To evaluate freeze-thaw stability, samples were frozen at −20°C for 24 h and thawed at 4°C for three cycles. […] Stability assays of IMMH-010 and YPD-29B were performed at two QC levels (high and low QC) (n = 5).
# [3] = time 0.25 (15 min) after i.g. 10 mg/kg IMMH-010 maleate
# [4] = time 0.5 (30 min) after i.g. 10 mg/kg IMMH-010 maleate
# [5] = time 4 (4 h) after i.g. 10 mg/kg IMMH-010 maleate
# [6] = single i.g. IMMH-010 maleate 10 mg/kg
# [7] = single i.g. IMMH-010 maleate 30 mg/kg
# [8] = single i.g. IMMH-010 maleate 100 mg/kg
# [9] = prepared rat plasma samples, at 15°C in auto-sampler (24 h), spiked 2 ng/ml IMMH-010, 5 ng/ml YPD-29B
# [10] = prepared rat plasma samples, at 15°C in auto-sampler (24 h), spiked 160 ng/ml IMMH-010, 800 ng/ml YPD-29B
# [11] = prepared rat plasma samples, at 15°C in auto-sampler (48 h), spiked 2 ng/ml IMMH-010, 5 ng/ml YPD-29B
# [12] = prepared rat plasma samples, at 15°C in auto-sampler (48 h), spiked 160 ng/ml IMMH-010, 800 ng/ml YPD-29B
# [13] = rat plasma, 4°C (4 h), spiked 2 ng/ml IMMH-010, 5 ng/ml YPD-29B
# [14] = rat plasma, 4°C (4 h), spiked 160 ng/ml IMMH-010, 800 ng/ml YPD-29B
# [15] = rat plasma, stored at −20°C (3 months), spiked 2 ng/ml IMMH-010, 5 ng/ml YPD-29B
# [16] = rat plasma, stored at −20°C (3 months), spiked 160 ng/ml IMMH-010, 800 ng/ml YPD-29B
# [17] = rat plasma, three freeze–thaw cycles, spiked 2 ng/ml IMMH-010, 5 ng/ml YPD-29B
# [18] = rat plasma, three freeze–thaw cycles, spiked 160 ng/ml IMMH-010, 800 ng/ml YPD-29B
smiles,measurement,setting,value
"CC(C)OC(=O)C(CO)NCc1cc(Cl)c(OCc2cccc(-c3ccccc3)c2Br)cc1OCc1cccnc1 (centres unmarked) [IMMH-010, 2-[4-(2-bromo-biphenyl-3-ylmethoxy)-5-chloro-2-(pyridin-3-ylmethoxy)-benzylamino]-3-hydroxy-propionic acid isopropyl ester]",concentration in adrenal gland,"[1]; adrenal gland, time 0.25 (15 min) after i.g. 10 mg/kg IMMH-010 maleate",80.8 ± 47.4 ng/ml or ng/g
same,concentration in adrenal gland,"[1]; adrenal gland, time 0.5 (30 min) after i.g. 10 mg/kg IMMH-010 maleate",204 ± 132 ng/ml or ng/g
same,concentration in adrenal gland,"[1]; adrenal gland, time 4 (4 h) after i.g. 10 mg/kg IMMH-010 maleate",41.3 ± 6.9 ng/ml or ng/g
same,concentration in brain,"[1]; brain, time 0.25 (15 min) after i.g. 10 mg/kg IMMH-010 maleate",6.22 ± 0.34 ng/ml or ng/g
same,concentration in brain,"[1]; brain, time 0.5 (30 min) after i.g. 10 mg/kg IMMH-010 maleate",3.66 ± 3.35 ng/ml or ng/g
same,concentration in brain,"[1]; brain, time 4 (4 h) after i.g. 10 mg/kg IMMH-010 maleate",BLQ
same,Kp at 0.25 h,[1]; adrenal gland,25
same,Kp at 0.5 h,[1]; adrenal gland,51.1
same,Kp at 0.25 h,[1]; brain,1.9
same,Kp at 0.5 h,[1]; brain,0.9
same,Kp at 0.25 h,[1]; heart,5.4
same,Kp at 0.5 h,[1]; heart,9.5
same,Kp at 0.25 h,[1]; liver,3.8
same,Kp at 0.5 h,[1]; liver,6.4
same,Kp at 0.5 h,[1]; lung,0.3
same,Kp at 0.25 h,[1]; lymph,1.7
same,Kp at 0.5 h,[1]; lymph,21.2
same,Kp at 0.25 h,[1]; spleen,0.9
same,Kp at 0.5 h,[1]; spleen,2
same,concentration in heart,"[1]; heart, time 0.25 (15 min) after i.g. 10 mg/kg IMMH-010 maleate",17.3 ± 10.5 ng/ml or ng/g
same,concentration in heart,"[1]; heart, time 0.5 (30 min) after i.g. 10 mg/kg IMMH-010 maleate",38.1 ± 25.8 ng/ml or ng/g
same,concentration in heart,"[1]; heart, time 4 (4 h) after i.g. 10 mg/kg IMMH-010 maleate",1.92 ± 2.66 ng/ml or ng/g
same,concentration in kidney,[1]; [3],BLQ
same,concentration in kidney,[1]; [4],BLQ
same,concentration in kidney,[1]; [5],BLQ
same,concentration in liver,"[1]; liver, time 0.25 (15 min) after i.g. 10 mg/kg IMMH-010 maleate",12.4 ± 13.4 ng/ml or ng/g
same,concentration in liver,"[1]; liver, time 0.5 (30 min) after i.g. 10 mg/kg IMMH-010 maleate",25.6 ± 19.8 ng/ml or ng/g
same,concentration in liver,"[1]; liver, time 4 (4 h) after i.g. 10 mg/kg IMMH-010 maleate",6.30 ± 5.77 ng/ml or ng/g
same,concentration in lung,"[1]; lung, time 0.25 (15 min) after i.g. 10 mg/kg IMMH-010 maleate",BLQ
same,concentration in lung,"[1]; lung, time 0.5 (30 min) after i.g. 10 mg/kg IMMH-010 maleate",1.37 ± 3.06 ng/ml or ng/g
same,concentration in lung,"[1]; lung, time 4 (4 h) after i.g. 10 mg/kg IMMH-010 maleate",BLQ
same,concentration in lymph,"[1]; lymph, time 0.25 (15 min) after i.g. 10 mg/kg IMMH-010 maleate",5.46 ± 5.1 ng/ml or ng/g
same,concentration in lymph,"[1]; lymph, time 0.5 (30 min) after i.g. 10 mg/kg IMMH-010 maleate",84.6 ± 87.9 ng/ml or ng/g
same,concentration in lymph,"[1]; lymph, time 4 (4 h) after i.g. 10 mg/kg IMMH-010 maleate",12.5 ± 7.1 ng/ml or ng/g
same,concentration in plasma,[1]; [3],3.23 ± 2.28 ng/ml or ng/g
same,concentration in plasma,[1]; [4],3.99 ± 3.45 ng/ml or ng/g
same,concentration in plasma,[1]; [5],BLQ
same,concentrations in tissues at 12 h,"[1]; rat tissues, 12 h after oral 10 mg/kg IMMH-010 maleate",below the LLOQ
same,tissues of main distribution,"[1]; rats, oral 10 mg/kg IMMH-010 maleate","adrenal gland, followed by the lymph, heart, liver and spleen"
same,concentration in spleen,"[1]; spleen, time 0.25 (15 min) after i.g. 10 mg/kg IMMH-010 maleate",2.98 ± 2.77 ng/ml or ng/g
same,concentration in spleen,"[1]; spleen, time 0.5 (30 min) after i.g. 10 mg/kg IMMH-010 maleate",8.08 ± 8.51 ng/ml or ng/g
same,concentration in spleen,"[1]; spleen, time 4 (4 h) after i.g. 10 mg/kg IMMH-010 maleate",0.848 ± 1.896 ng/ml or ng/g
same,concentration in thymus,[1]; [3],BLQ
same,concentration in thymus,[1]; [4],BLQ
same,concentration in thymus,[1]; [5],BLQ
same,AUC(0-t),[2]; [6],0.0085 ± 0.00367 µg·h/mL
same,Cmax,[2]; [6],0.00845 ± 0.00327 µg/mL
same,MRT last,[2]; [6],0.8 ± 0.13 h
same,Tmax,[2]; [6],0.5 h
same,AUC(0-inf),[2]; [7],0.0441 ± 0.0206 µg·h/mL
same,AUC(0-t),[2]; [7],0.0375 ± 0.0135 µg·h/mL
same,Cmax,[2]; [7],0.0284 ± 0.013 µg/mL
same,MRT last,[2]; [7],1.09 ± 0.21 h
same,MRT inf,[2]; [7],1.49 ± 0.3 h
same,Tmax,[2]; [7],0.5 h
same,AUC(0-inf),[2]; [8],0.134 ± 0.0457 µg·h/mL
same,AUC(0-t),[2]; [8],0.129 ± 0.0456 µg·h/mL
same,Cmax,[2]; [8],0.0714 ± 0.034 µg/mL
same,MRT last,[2]; [8],1.82 ± 0.53 h
same,MRT inf,[2]; [8],2.11 ± 0.69 h
same,Tmax,[2]; [8],0.5 h
same,half-life,"[2]; 30 mg/kg, single i.g. IMMH-010 maleate 30 mg/kg",0.98 ± 0.28 h
same,half-life,"[2]; 100 mg/kg, single i.g. IMMH-010 maleate 100 mg/kg",1.63 ± 0.49 h
same,dose dependence of AUC,"[2]; dose range 10–100 mg/kg IMMH-010 maleate, oral",proportional to the dose
same,stability in rat plasma with esterase inhibitor,"Stability in rat plasma; 4°C, rat plasma containing 50 mM NaF, preliminary results",stable
same,"Accuracy (RE, %)",Stability in rat plasma; [9],−6.0%
same,Measured conc.,Stability in rat plasma; [9],1.88 ± 0.21 ng/mL
same,"Accuracy (RE, %)",Stability in rat plasma; [10],−7.5%
same,Measured conc.,Stability in rat plasma; [10],148 ± 4 ng/mL
same,"Accuracy (RE, %)",Stability in rat plasma; [11],2.0%
same,Measured conc.,Stability in rat plasma; [11],2.04 ± 0.07 ng/mL
same,"Accuracy (RE, %)",Stability in rat plasma; [12],−3.8%
same,Measured conc.,Stability in rat plasma; [12],154 ± 4 ng/mL
same,"stability during the sample preparation, storage and analysis","Stability in rat plasma; rat plasma: 4°C 4 h, −20°C 3 months, three freeze-thaw cycles, autosampler 10°C 48 h",stable
same,"Accuracy (RE, %)",Stability in rat plasma; [13],2.5%
same,Measured conc.,Stability in rat plasma; [13],2.05 ± 0.10 ng/mL
same,"Accuracy (RE, %)",Stability in rat plasma; [14],8.1%
same,Measured conc.,Stability in rat plasma; [14],173 ± 20 ng/mL
same,"Accuracy (RE, %)",Stability in rat plasma; [15],12.0%
same,Measured conc.,Stability in rat plasma; [15],2.24 ± 0.10 ng/mL
same,"Accuracy (RE, %)",Stability in rat plasma; [16],3.8%
same,Measured conc.,Stability in rat plasma; [16],166 ± 4 ng/mL
same,"Accuracy (RE, %)",Stability in rat plasma; [17],5.5%
same,Measured conc.,Stability in rat plasma; [17],2.11 ± 0.22 ng/mL
same,"Accuracy (RE, %)",Stability in rat plasma; [18],−1.9%
same,Measured conc.,Stability in rat plasma; [18],157 ± 4 ng/mL
